Where a name gives a salt, the structure may show the parent alone.
Legend:
sodium channel = assay: Guanidine influx assay (14C-guanidine radiotracer flux, in vitro); type: cell-based, human or rat; conditions: guanidine influx assay using a known cell line that expresses a sodium channel
How it was run: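 Radiotracer read-out: intracellular 14C-guanidine counted after washing with guanidine-supplemented low-sodium buffer. Cells expressing human or rat channels get test agent plus aconitine activator and tracer, incubated at ambient temperature. Dilution series centred on 1 μM; IC50 by sigmoidal dose-response fit.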

CYP3A4 = CYP3A4 (Homo sapiens, UniProt P08684); assay: Cytochrome P450 (CYP450) Inhibition Assay, CYP3A4 (Vivid fluorescence, BOMCC substrate); conditions: human, P450 Baculosomes (recombinant CYP3A4), probe BOMCC (Vivid substrate)
Chain of CYP3A4 (P08684 whole entry): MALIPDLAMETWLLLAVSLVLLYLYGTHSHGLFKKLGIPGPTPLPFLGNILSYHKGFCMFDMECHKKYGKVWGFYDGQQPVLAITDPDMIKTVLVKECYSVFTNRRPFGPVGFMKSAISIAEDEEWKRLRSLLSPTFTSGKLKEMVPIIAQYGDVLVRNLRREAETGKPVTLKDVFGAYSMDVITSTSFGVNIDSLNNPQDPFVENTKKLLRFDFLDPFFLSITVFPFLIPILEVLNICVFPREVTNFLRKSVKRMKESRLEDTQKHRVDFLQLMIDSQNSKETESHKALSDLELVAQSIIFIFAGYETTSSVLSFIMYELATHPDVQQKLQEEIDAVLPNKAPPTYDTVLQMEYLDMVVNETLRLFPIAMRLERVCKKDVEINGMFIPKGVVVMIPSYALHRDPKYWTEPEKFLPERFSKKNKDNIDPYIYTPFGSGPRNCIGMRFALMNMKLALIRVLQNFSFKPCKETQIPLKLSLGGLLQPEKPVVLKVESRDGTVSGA

Row | Compound | IC50 (sodium channel) | inhibition at 10 µM (CYP3A4) | IC50 (sodium channel; activity level class)
1 | CS(=O)(=O)Nc1cccnc1CN1C(=O)C2(COc3cc4c(cc32)OCCO4)c2ccccc21 (stereo not drawn) [Example 11.98, N-{2-[(2′-oxo-2,3-dihydrospiro[furo[2,3-g][1,4]benzodioxine-8,3′-indol]-1′(2′H)-yl)methyl]pyridine-3-yl}methanesulfonamide] | 100 to 1000 nM | > 50% | –
2 | Nc1cc(-c2ccc(CN3C(=O)C4(COc5cc6c(cc54)OCCO6)c4ccccc43)cc2)[nH]n1 (stereo not drawn) [Example 29.2, 1′-[4-(3-amino-1H-pyrazol-5-yl)benzyl]-2,3-dihydrospiro[furo[2,3-g][1,4]benzodioxine-8,3′-indol]-2′(1′H)-one hydrochloride] | 100 to 1000 nM | > 50% | –
3 | N#Cc1ccc2c(c1)OCC21C(=O)N(Cc2ccc3c(c2)OCCO3)c2ccccc21 (stereo not drawn) [Example 4.111, 1′-(2,3-dihydro-1,4-benzodioxin-6-ylmethyl)-2′-oxo-1′,2′-dihydrospiro[1-benzofuran-3,3′-indole]-6-carbonitrile] | – | < 50% | 100 to 1000 nM
4 | O=C1N(Cc2ccc(-c3ccccc3)cc2)c2ccccc2C12COc1cc3c(cc12)CCO3 (stereo not drawn) [Example 4.15, 1′-(biphenyl-4-ylmethyl)-5,6-dihydrospiro[benzo[1,2-b:5,4-b′]difuran-3,3′-indol]-2′(1′H)-one] | – | < 50% | 1 to 100 nM
5 | COC(=O)c1ccc(CN2C(=O)C3(COc4cc5c(cc43)CCO5)c3ccccc32)o1 (stereo not drawn) [Example 4.7, methyl 5-[(2′-oxo-5,6-dihydrospiro[benzo[1,2-b:5,4-b′]difuran-3,3′-indol]-1′(2′H)-yl)methyl]furan-2-carboxylate] | – | > 50% | 1 to 100 nM
6 | CCn1cncc1CN1C(=O)C2(COc3cc4c(cc32)CCO4)c2ccccc21 (stereo not drawn) [Example 4.21, 1′-[(1-ethyl-1H-imidazol-5-yl)methyl]-5,6-dihydrospiro[benzo[1,2-b:5,4-b′]difuran-3,3′-indol]-2′(1′H)-one] | – | > 50% | 100 to 1000 nM
7 | CC(C)Oc1ccc2c(c1)OCC21C(=O)N(C[C@H]2CCCO2)c2ccccc21 (stereo partly drawn) [Example 11.54, 6-(1-methylethoxy)-1′-[(2R)-tetrahydrofuran-2-ylmethyl]spiro[1-benzofuran-3,3′-indol]-2′(1′H)-one] | 100 to 1000 nM | < 50% | –
8 | O=C1N(Cc2ccc(N[C@@H]3CCNC3)cc2)c2ccccc2C12COc1cc(F)c(F)cc12 (stereo partly drawn) [Example 33.2, 5,6-difluoro-1′-{4-[(3R)-pyrrolidin-3-ylamino]benzyl}spiro[1-benzofuran-3,3′-indol]-2′(1′H)-one hydrochloride] | 1000 to 10000 nM | > 50% | –
9 | O=C1N(C[C@H]2CCCO2)c2cccc(-c3cc(C(F)(F)F)cc(C(F)(F)F)c3)c2C12COc1cc3c(cc12)CCO3 (stereo partly drawn) [Example 16.5, 4′-[3,5-bis(trifluoromethyl)phenyl]-1′-[(2R)-tetrahydrofuran-2-ylmethyl]-5,6-dihydrospiro[benzo[1,2-b:5,4-b′]difuran-3,3′-indol]-2′(1′H)-one] | 100 to 1000 nM | > 50% | –
10 | O=C1N(C[C@H]2CCCO2)c2cccc(/C=C/c3ccc(F)cc3)c2C12COc1cc3c(cc12)CCO3 (stereo partly drawn) [Example 16.1, 4′-[(E)-2-(4-fluorophenyl)ethenyl]-1′-[(2R)-tetrahydrofuran-2-ylmethyl]-5,6-dihydrospiro[benzo[1,2-b:5,4-b′]difuran-3,3′-indol]-2′(1′H)-one] | 100 to 1000 nM | > 50% | –
11 | O=C1N(C[C@H]2CCCO2)c2cccc(-c3csc4ccccc34)c2C12COc1cc3c(cc12)CCO3 (stereo partly drawn) [Example 16.3, 4′-(1-benzothiophen-3-yl)-1′-[(2R)-tetrahydrofuran-2-ylmethyl]-5,6-dihydrospiro[benzo[1,2-b:5,4-b′]difuran-3,3′-indol]-2′(1′H)-one] | 1000 to 10000 nM | > 50% | –
12 | N#Cc1cc2c(cc1F)OCC21C(=O)N(Cc2ccccc2C(F)(F)F)c2ccccc21 (stereo not drawn) [Example 9.50, 6-fluoro-2′-oxo-1′-[2-(trifluoromethyl)benzyl]-1′,2′-dihydrospiro[1-benzofuran-3,3′-indole]-5-carbonitrile] | – | > 50% | 1000 to 10000 nM

Source: patent US8263606B2 (Xenon Pharmaceuticals Inc., priority 2008, dated 2012)
